From patent US9481796B2, “Method for producing nanoparticles” (M. Technique Co., Ltd., priority 2010, dated 2016)

Assay: Volume-average particle diameter of benzbromarone nanoparticles (Nanotrac particle size distribution), Example 2-2
Type: physicochemical
Conditions: ethanol solution of 3% benzbromarone/0.1% Tween 80 into pure water
Experimental: Particle size distribution was measured by using a Nanotrac particle size distribution measurement instrument (UPA-EX150, manufactured by Nikkiso Co., Ltd.), and the volume-average particle diameter was taken. An ethanol solution in which benzbromarone and Tween 80 (dispersant) were dissolved with the concentrations thereof being 3% for benzbromarone and 0.1% for Tween 80 was introduced as a second fluid into between the processing surfaces 1 and 2 at a rate of 10 mL/minute, together with pure water as a first fluid from the center at supply pressure of 0.25 MPa, a rotation speed of 700 rpm, and a rate of 200 g/minute, whereby the two fluids were mixed. The dispersion solution of benzbromarone was discharged. Temperature conditions of the first fluid and the second fluid, and results of particle size distribution of the obtained dispersion solution are shown in Table 3. The particle diameters of nanoparticles obtained in respective conditions were confirmed by a transmission electron microscope (TEM); it was confirmed that the particle diameter confirmed by the TEM picture was identical to the measurement result of the particle size distribution. The SEM picture of the nanoparticles obtained under the temperature conditions of 25° C. for the first fluid and 25° C. for the second fluid (ΔT=0° C.) is shown in FIG. 17; and the TEM picture of the nanoparticles obtained under the temperature conditions of 5° C. for the first fluid and 35° C. for the second fluid (ΔT=30° C.) is shown in FIG. 18, respectively.

Volume-average particle diameter (T1 5°C, T2 5°C, ΔT 0): 229.3 nm
Volume-average particle diameter (T1 5°C, T2 8°C, ΔT 3): 204.6 nm
Volume-average particle diameter (T1 5°C, T2 10°C, ΔT 5): 51.3 nm
Volume-average particle diameter (T1 5°C, T2 35°C, ΔT 30): 58.6 nm
Volume-average particle diameter (T1 25°C, T2 25°C, ΔT 0): 208.4 nm
SMILES: CCc1oc2ccccc2c1C(=O)c1cc(Br)c(O)c(Br)c1 [benzbromarone]
